pEC50, pIC50: −log10 of the molar value.
How the values were obtained:
Format in all cases: cell-based
human AR (full-length) [1] = biological target: T1, human AR (full-length) (Homo sapiens, UniProt P10275); experiment: U2OS-AR/MMTV luciferase reporter cell line (full-length receptor)
T1 construct: expression vectors encoding full-length steroid receptors: pcDNA3-hAR and pcDNA3-hGR; host or cells: U2OS
T1 sequence (P10275 1-920): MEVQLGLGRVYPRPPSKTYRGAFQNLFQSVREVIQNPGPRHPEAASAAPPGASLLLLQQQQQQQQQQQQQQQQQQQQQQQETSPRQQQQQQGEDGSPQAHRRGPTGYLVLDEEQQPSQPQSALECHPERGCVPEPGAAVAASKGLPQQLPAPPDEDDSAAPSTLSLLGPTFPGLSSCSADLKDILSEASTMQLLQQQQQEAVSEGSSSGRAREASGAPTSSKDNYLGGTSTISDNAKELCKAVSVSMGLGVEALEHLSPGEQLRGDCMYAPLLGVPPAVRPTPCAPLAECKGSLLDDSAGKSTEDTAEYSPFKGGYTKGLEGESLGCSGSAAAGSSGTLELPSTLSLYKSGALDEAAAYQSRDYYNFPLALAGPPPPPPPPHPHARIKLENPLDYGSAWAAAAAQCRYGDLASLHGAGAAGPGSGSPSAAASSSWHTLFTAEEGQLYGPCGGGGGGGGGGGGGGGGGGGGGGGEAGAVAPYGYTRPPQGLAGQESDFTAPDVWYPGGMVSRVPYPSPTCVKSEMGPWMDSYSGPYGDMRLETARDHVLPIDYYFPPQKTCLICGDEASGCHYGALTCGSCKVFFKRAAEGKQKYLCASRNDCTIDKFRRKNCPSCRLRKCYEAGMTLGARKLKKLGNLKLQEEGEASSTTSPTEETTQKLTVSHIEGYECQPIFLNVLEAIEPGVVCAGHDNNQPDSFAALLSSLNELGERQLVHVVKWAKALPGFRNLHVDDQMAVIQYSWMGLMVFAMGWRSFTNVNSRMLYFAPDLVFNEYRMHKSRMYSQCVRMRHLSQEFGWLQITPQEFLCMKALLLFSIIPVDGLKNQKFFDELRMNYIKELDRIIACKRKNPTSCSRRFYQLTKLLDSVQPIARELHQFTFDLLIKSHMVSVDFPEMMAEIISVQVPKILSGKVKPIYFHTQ

[2] = biological target: T2, ERβ-LBD fused to Gal4-DBD (Homo sapiens, UniProt Q92731); experiment: U2OS-ERβ-LBD/9xGal4UAS luciferase reporter cell line; conditions: read-out: Log EC50 (converted)
T2 construct: region comprising ERβ-LBD and a piece of the hinge region; expressed in transfected cells; host or cells: U2OS

human ERβ (full-length) = biological target: T3, human ERβ (full-length) (Homo sapiens, UniProt Q92731); experiment: U2OS-ERβ/3xERE luciferase reporter cell line (full-length receptor); conditions: read-out: Log EC50 (converted)
T3 construct: expression vectors encoding full-length steroid receptors: pcDNA3-hERα and pcDNA3-ERβ; expressed in transfected cells; host or cells: U2OS

MR-LBD fused to Gal4-DBD = biological target: T4, MR-LBD fused to Gal4-DBD (Homo sapiens, UniProt P08235); experiment: U2OS-MR-LBD/9xGal4UAS luciferase reporter cell line; conditions: read-out: Log EC50 (converted)
T4 construct: MR-LBD was cloned by RT-PCR from total RNA isolated from HEK293 cells; expressed in transfected cells; host or cells: U2OS
T4 sequence (P08235 726-964 limits assumed): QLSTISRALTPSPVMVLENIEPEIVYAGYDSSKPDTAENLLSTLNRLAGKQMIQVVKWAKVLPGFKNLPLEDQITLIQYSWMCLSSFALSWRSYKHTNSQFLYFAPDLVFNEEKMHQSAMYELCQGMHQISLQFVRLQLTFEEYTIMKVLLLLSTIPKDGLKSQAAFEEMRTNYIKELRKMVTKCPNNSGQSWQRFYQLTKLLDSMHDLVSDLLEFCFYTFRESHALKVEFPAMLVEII

human MR (full-length) = biological target: T5, human MR (full-length) (Homo sapiens, UniProt P08235); experiment: U2OS-MR/MMTV luciferase reporter cell line (full-length receptor); conditions: read-out: Log EC50 (converted)
T5 construct: expression vectors encoding full-length steroid receptors: pcDNA3-hAR, pcDNA3-hGR and pcDNA3-hMR; expressed in transfected cells; host or cells: U2OS
T5 sequence (P08235 1-984): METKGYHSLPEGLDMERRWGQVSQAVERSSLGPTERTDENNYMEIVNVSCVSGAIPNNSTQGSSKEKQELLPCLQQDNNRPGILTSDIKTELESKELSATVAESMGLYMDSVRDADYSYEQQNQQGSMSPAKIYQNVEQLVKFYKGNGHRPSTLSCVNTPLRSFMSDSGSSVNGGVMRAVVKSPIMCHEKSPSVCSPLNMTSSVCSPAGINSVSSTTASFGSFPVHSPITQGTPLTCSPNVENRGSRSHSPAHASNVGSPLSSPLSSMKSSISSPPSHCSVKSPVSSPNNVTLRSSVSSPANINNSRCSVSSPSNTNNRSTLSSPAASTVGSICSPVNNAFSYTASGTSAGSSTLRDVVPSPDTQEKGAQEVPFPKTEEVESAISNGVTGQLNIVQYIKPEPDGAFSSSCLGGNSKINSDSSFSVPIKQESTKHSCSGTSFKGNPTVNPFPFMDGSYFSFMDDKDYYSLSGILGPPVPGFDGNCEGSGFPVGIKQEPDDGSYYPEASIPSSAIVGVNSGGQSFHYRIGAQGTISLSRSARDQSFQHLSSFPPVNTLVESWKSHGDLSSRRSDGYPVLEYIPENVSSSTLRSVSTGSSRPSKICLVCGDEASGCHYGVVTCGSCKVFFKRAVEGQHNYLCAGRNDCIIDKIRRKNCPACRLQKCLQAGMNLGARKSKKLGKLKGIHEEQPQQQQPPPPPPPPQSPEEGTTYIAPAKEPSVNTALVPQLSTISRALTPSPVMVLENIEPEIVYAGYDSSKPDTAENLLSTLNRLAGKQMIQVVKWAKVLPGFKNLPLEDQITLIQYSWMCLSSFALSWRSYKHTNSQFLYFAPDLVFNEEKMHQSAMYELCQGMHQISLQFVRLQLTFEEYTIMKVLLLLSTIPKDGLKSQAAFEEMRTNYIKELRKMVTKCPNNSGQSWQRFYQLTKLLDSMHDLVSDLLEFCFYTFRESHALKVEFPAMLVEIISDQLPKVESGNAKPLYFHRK

human AR (full-length) [3] = biological target: T1, human AR (full-length); experiment: U2OS-AR/3xGRE luciferase reporter cell line (full-length receptor)
[4] = biological target: T6, AR-LBD fused to Gal4-DBD (co-expressed with full-length AR) (Homo sapiens, UniProt P10275); experiment: U2OS-AR-LBD/9xGal4UAS luciferase reporter cell line
T6 construct: the following primers were used for the amplification of the LBD region; expressed in transfected cells; host or cells: U2OS
T6 sequence (P10275 669-900 limits assumed): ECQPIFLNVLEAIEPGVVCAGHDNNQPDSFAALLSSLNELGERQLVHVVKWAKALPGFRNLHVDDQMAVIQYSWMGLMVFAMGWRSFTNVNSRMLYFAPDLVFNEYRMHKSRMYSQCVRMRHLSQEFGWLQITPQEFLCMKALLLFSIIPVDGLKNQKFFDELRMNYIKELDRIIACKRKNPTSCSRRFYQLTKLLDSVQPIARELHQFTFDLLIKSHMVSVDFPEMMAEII

PR-LBD fused to Gal4-DBD = biological target: T7, PR-LBD fused to Gal4-DBD (Homo sapiens, UniProt P06401); experiment: U2OS-PR-LBD/9xGal4UAS luciferase reporter cell line
T7 construct: PR-LBD region was PCR amplified using the following primer combination; host or cells: U2OS
T7 sequence (P06401 679-913 limits assumed): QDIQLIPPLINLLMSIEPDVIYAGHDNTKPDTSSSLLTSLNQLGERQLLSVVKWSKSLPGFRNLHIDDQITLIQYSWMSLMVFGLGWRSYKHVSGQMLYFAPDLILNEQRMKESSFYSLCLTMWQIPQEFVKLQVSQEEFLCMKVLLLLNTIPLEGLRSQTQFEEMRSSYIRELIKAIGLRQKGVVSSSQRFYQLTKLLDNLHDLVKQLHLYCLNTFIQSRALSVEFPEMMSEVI

T3 sequence (Q92731 whole entry): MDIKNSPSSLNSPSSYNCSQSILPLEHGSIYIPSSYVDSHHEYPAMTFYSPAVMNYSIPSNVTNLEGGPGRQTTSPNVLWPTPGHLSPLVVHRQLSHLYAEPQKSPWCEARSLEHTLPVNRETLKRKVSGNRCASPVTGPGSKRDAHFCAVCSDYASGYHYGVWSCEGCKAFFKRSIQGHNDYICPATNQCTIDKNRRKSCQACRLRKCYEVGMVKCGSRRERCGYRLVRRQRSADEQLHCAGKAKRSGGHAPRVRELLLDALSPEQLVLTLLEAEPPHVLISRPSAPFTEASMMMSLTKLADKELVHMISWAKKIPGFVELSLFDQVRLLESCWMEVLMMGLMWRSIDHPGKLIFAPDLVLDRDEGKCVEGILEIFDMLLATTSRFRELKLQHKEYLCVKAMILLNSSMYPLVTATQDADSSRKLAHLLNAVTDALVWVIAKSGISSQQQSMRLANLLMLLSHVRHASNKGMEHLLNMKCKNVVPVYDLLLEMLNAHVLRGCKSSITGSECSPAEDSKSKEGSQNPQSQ
T2 sequence (Q92731 264-498 limits assumed): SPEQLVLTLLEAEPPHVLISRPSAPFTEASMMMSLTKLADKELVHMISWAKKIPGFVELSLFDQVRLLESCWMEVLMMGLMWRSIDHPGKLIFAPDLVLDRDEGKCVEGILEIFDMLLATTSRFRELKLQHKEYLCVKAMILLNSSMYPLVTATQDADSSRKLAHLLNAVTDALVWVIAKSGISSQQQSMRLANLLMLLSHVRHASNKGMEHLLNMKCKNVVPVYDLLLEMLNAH

- pEC50 (human AR (full-length) [1]): < 5.00
- pIC50 (human AR (full-length) [1]): < 5.00
- EC50 [2]: > 10 µM
- EC50 (human ERβ (full-length)): > 10 µM
- EC50 (MR-LBD fused to Gal4-DBD): 0.0112 µM
- EC50 (human MR (full-length)): 0.00631 µM
- pEC50 (human AR (full-length) [3]): < 5.00
- pEC50 [4]: < 5.00
- pIC50 [4]: < 5.00
- IC50 (PR-LBD fused to Gal4-DBD; antagonist mode, PR-LBD/9xGal4UAS, log10 of molar IC50, mean ± SEM, read-out: Log IC50 (converted)): > 10 µM
- EC50 (PR-LBD fused to Gal4-DBD; read-out: Log EC50 (converted)): 6.17 µM
SMILES: C[C@]12CCC(=O)C=C1CC[C@@H]1[C@@H]2[C@@H](O)C[C@@]2(C)[C@H]1CC[C@]2(O)C(=O)CO [Cortisol, cortisol]

— article PMC3234597, “Two Panels of Steroid Receptor Luciferase Reporter Cell Lines for Compound Profiling” (Combinatorial Chemistry & High Throughput Screening, 2011)
